From patent US9687480B2, “Chiral 1-(4-methylphenylmethyl)-5-oxo-{N-[(3-t-butoxycarbonyl-aminomethyl)]-piperidin-1-yl)-pyrrolidine as inhibitors of collagen induced platelet activation and adhesion” (Council of Scientific & Industrial Research, priority 2011, dated 2017)
Like-named read-outs stand apart in the source and are kept apart here.

Columns and labels:
[1] = system: human platelet rich plasma (TRAP induced aggregation); test: TRAP (SFLLRN) induced platelet aggregation, human platelet rich plasma (in vitro); format: cell-based; settings: for IC50: human PRP, 25 μM TRAP, read-out: TRAP induced platelet aggregation studies (Human) IC50; for effect on TRAP induced platelet aggregation: up to 300 μM
Description: (§1) The reaction was allowed to proceed for at least 5 min, and the extent of aggregation was expressed in light-transmission units (Ivandic B T, Schlick P, Starltz P, Kurz K, Katas H A, Giannitsis E. Determination of clopidogrel resistance by whole blood platelet aggregometry and inhibitors of the P2Y12 receptor. Clinical Chemistry 2006: 52:383-88).
(§2) The percentage of aggregation was calculated by using following formula: Percent Aggregation=A/B×100 Where, A is the number of division traversed by the label on chart in the presence of Inducer & B is the total number of divisions (80). Platelet Aggregation Studies (FIG. 3) a) Platelet Aggregation (Human, In Vitro) (FIG. 3a (i) (ii) (iii))

[2] = system: human platelet rich plasma (collagen induced aggregation); test: Collagen induced platelet aggregation, human platelet rich plasma (in vitro); format: cell-based; settings: for IC50: human PRP, collagen 2 μg/ml, read-out: Collagen induced platelet aggregation studies (Human) IC50; for activity against collagen induced aggregation: in vitro, human platelet rich plasma
Description: as §1, §2

[3] = system: hamster whole blood (Collagen 2.5 μg/ml); test: Whole blood aggregation in hyperlipidemic hamsters (ex vivo), collagen induced; settings: Table 2 summary
[4] = system: rats; test: Arterio-venous shunt model in rats; format: in vivo; settings: for Arterio-venous shunt model in rat: Table 2 summary; for thrombus weight: rats, given 1 hr prior to shunt
Description: Rats were grouped into control, aspirin and test compound group, each group having six animals. Rats were anesthetized with urethane (1.25 g/kg). Cervical incision was made and carotid artery and its contra lateral jugular vein was exposed to prepare a shunt by using polyethylene tubes. Two 7 cm siliconized polyethylene tubes (0.5/1.0 mm inner/outer diameter) were linked to a central 6 cm silicon tube (1.0/1.5 mm, inner/outer diameter) containing a 5 cm silk thread (pre-weighed) and were filled with saline. The shunt assembly was cannulated between the jugular vein and contra-lateral carotid artery and blood was allowed to circulate through the shunt. Blood flow through the shunt was maintained for 10 minutes, subsequently the central part of the shunt was removed and silk thread having thrombus deposit was taken out and weighed. The thrombus adhered/deposited on thread was calculated by subtracting the wet weight of the silk thread. The standard drugs and test compounds were given 1 hr prior to the establishment of arterio-venous shunt (Tohti I, Tursun M, Umar A, Turdi S, Imin H, Moore N. Aqueous extracts of Ocimum basilicum L. (sweet basil) decrease platelet aggregation induced by ADP and thrombin in vitro and rats arterio-venous shunt thrombosis in vivo. Thrombosis Res. 2006; 118: 733-739).

[5] = system: human platelet rich plasma (ADP induced aggregation); test: ADP induced platelet aggregation, human platelet rich plasma (in vitro); format: cell-based
Description: as §1, §2

[6] = molecular target: T1, Integrin α2β1 (Homo sapiens, UniProt P05556+P17301); test: α2β1-mediated platelet adhesion assay on soluble collagen (human, in vitro); format: cell-based; settings: washed platelets, with Mg2+
T1 construct: Washed platelets, suspended in the Tyrode's-HEPES buffer; endogenous in cells; host or cells: washed human platelets from healthy volunteers
Description: Fresh blood was drawn by venipuncture from consenting healthy human volunteers in citrate-phosphate-dextrose. Platelet-rich plasma (PRP) was obtained by centrifugation at 180 g for 20 minutes at room temperature (Beckman TJ6. USA). […] Platelets were then washed twice with Buffer (20 mMHEPES, 138 mM NaCl, 2.9 mMKCl, 1 mMMgCl2, 0.36 mMNaH2PO4, 1 mM EGTA, 4.77 mM trisodium citrate, and 2.35 mM citric acid, 5 mM glucose and Apyrase 1 U/ml, pH 6.5) containing 0.1% bovine serum albumin (BSA) and finally resuspended in the HEPES-buffered Tyrode solution (pH 7.4), to give a concentration of 2×10^8 cells/mL (Jandrot-Perrus M. Lagrue A H, Okuma M, and Boni C Adhesion and Activation of Human Platelets Induced by Convulxin Involve Glycoprotein VI and Integrin α2β1 J. Biol. Chem. 1997; 272: 27035-27041).
Integrin α2β1 binding on soluble collagen depends on the presence of Mg2+/Ca^2+ (Onley D. J., Knight C. G., Tuckwell D. S., Barnes M. J., and Farndale R. W. Micromolar Ca2+ concentrations are essential for Mg2+-dependent binding of collagen by the integrin α2β1 in human platelets. J. Biol. Chem, 2000; 275: 24560-24564.) while GPVI mediates adhesion over fibrillar collagen in absence of divalent ions (Nieswandt B., Brakebusch C, Bergmeier W, Schulte V, Bouvard D, Nejad R M, Lindhout T, Heemskerk J W M, Zirngibl H and Fassler R. Glycoprotein VI but not α2b1 integrin is essential for platelet interaction with collagen. The EMBO Journal, 2001; 20:2120-2130) and therefore the adhesion assays were performed in the presence or absence of these divalent cations. […]

T1 sequence (P17301 30-1181): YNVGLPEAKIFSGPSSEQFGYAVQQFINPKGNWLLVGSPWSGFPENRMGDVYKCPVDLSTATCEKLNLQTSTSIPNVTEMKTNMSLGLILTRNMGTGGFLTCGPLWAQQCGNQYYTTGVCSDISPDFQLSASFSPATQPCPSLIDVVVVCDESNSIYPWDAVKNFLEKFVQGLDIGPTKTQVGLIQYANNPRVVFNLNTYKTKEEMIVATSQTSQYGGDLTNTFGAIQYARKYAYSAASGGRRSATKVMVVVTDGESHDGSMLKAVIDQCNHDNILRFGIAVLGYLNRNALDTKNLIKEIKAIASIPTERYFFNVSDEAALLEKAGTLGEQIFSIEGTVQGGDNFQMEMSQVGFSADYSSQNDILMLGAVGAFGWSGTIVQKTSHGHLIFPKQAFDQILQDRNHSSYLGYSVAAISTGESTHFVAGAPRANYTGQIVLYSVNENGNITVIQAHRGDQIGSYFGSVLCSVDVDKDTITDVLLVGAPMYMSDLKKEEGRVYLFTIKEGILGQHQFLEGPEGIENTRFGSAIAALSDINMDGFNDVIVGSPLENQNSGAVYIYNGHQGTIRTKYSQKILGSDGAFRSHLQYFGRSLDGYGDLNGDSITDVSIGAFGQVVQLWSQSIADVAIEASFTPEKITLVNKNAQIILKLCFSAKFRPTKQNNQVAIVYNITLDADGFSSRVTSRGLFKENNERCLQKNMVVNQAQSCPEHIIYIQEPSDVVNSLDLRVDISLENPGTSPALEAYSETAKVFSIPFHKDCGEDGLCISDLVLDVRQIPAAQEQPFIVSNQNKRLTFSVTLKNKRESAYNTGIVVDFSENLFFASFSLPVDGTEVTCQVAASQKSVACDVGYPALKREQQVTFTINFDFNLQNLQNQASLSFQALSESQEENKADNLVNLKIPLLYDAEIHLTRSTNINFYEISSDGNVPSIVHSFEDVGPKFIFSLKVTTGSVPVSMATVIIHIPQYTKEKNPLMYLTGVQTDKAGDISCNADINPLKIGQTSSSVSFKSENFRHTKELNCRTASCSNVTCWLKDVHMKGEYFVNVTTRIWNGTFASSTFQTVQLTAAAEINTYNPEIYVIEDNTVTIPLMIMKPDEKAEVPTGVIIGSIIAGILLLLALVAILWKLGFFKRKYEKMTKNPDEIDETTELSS
T1 sequence (P05556 21-798): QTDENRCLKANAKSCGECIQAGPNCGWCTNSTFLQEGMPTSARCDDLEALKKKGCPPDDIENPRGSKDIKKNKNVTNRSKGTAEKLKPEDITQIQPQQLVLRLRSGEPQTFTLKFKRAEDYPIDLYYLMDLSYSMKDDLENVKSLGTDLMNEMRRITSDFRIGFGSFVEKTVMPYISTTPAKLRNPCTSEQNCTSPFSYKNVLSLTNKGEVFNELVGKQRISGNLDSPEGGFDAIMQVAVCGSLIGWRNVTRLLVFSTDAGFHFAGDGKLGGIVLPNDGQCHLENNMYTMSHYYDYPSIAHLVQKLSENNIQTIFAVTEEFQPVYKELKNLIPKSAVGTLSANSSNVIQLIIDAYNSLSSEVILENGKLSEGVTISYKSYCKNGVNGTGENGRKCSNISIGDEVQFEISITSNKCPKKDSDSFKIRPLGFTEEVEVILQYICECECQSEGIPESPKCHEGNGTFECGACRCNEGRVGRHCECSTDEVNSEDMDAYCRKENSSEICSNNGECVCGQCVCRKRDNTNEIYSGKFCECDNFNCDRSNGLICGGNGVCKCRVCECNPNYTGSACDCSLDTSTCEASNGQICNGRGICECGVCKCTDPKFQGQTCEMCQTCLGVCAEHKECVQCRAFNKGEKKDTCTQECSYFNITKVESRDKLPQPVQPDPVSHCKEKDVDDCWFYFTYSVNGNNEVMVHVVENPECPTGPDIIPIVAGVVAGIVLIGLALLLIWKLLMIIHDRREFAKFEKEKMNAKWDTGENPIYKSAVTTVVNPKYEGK

Compound	IC50 [1] [µM]	IC50 [2] [µM]	Whole blood aggregation in hyperlipidemic hamsters [3]	Arterio-venous shunt model in rat [4]	inhibition of TRAP induced platelet aggregation ([1]; at 100 μM)	effect on ADP induced platelet aggregation ([5]; concentration not given)	activity against collagen induced aggregation [2]	human platelet adhesion on soluble collagen (GP Ia IIa / α2β1 mediated) [6]	IC50 ([1]; Platelet) [µM]	effect on TRAP induced platelet aggregation [1]	effect on ADP induced platelet aggregation ([5]; up to 300 μM)	IC50 ([2]; Platelet) [µM]	thrombus weight [4]
1-(4-methylphenylmethyl)-5-oxo-{N-[(3-t-butoxycarbonyl-aminomethyl)]-piperidin-1-yl}-pyrrolidine-2-carboxamides [Compound 1]	> 100	~10	Effective	Protective	–	–	–	–	–	–	–	–	–
Cc1ccc(CN2C(=O)CC[C@H]2C(=O)N2CCCC(CNC(=O)OC(C)(C)C)C2)cc1 (stereo partly shown) [Compound 1, 1-(4-methylphenylmethyl)-5-oxo-{N-[(3-t-butoxycarbonyl-aminomethyl)]-piperidin-1-yl}-pyrrolidine-2-carboxamides]	–	–	–	–	significant inhibition	no effect	active	partially inhibited	–	–	–	–	–
Cc1ccc(CN2C(=O)CC[C@H]2C(=O)N2CCC[C@@H](CNC(=O)OC(C)(C)C)C2)cc1 [Compound 6]	–	–	Effective	Protective	–	no effect	active	partially inhibited	> 500	did not exhibit any effect	did not exhibit any effect	~10	reducing the thrombus weight significantly
Cc1ccc(CN2C(=O)CC[C@H]2C(=O)N2CCC[C@H](CNC(=O)OC(C)(C)C)C2)cc1 [Compound 7, (2S)-1-(4-methylphenylmethyl)-5-oxo-(3R)-{N-[(3-t-butoxycarbonyl-aminomethyl)]-piperidin-1-yl}-pyrrolidine-2-carboxamide]	–	–	No effect	Protective	–	no effect	active	partially inhibited	> 500	did not exhibit any effect	did not exhibit any effect	> 10	reducing the thrombus weight significantly
